# Experimental data from publication PMC8443589, “Modelling human liver fibrosis in the context of non-alcoholic steatohepatitis using a microphysiological system” (Communications Biology, 2021).
# Experiments:
# [1] = clinical dose; read-out: Plasma Cmax; cited from earlier work
# human NASH patients = details: cited from earlier work
# [2] = tested on: liver MPS NASH model + TGFβ (PHH, KC and HSC co-cultures, high fat); experiment: Secreted cytokine profile of enhanced liver MPS NASH model with TGFβ dosed with OCA or ELF (Fig 6a); assay type: cell-based, human; details: for IL-1RA production, fold change compared to control / IL-4 production, fold change compared to control / IL-6 production, fold change compared to control / IL-8 production, fold change compared to control / IP-10 production, fold change compared to control / MCP-1 production, fold change compared to control / MIP-1a production, fold change compared to control / MIP-1b production, fold change compared to control / VEGF production, fold change compared to control: vs NASH + TGFβ control
# Description: The systems biology approach identified TGFβ to be a key driver in creating a more advanced NASH phenotype in the MPS model, with enhanced fibrotic markers and reduced liver function. […] Therefore, we explored how effective pharmacological intervention would be for NASH microtissues with high NPC numbers supplemented with TGFβ and exposed them to varying concentrations of OCA and ELF QD as previously described (Supp. Fig. 6a). […] OCA had the greatest effect on IL-1Rα whereas ELF had the greatest effect on MCP-1 reflecting the fact that while both candidate drugs have anti-inflammatory properties, but their mechanisms of action are different. […] Finally, we used our quantitative fibrosis imaging assay to assess the effect of each candidate drug on collagen-1 deposition and α-SMA expression (Fig. 6c). […] Both candidate drugs caused a significant reduction in collagen-1 deposition and α-SMA expression, with the highest concentrations of OCA and ELF causing an 80% reduction in α-SMA expression and a 75% reduction in collagen-1 deposition (Fig. 6c).
# Fig. 6 Using enhanced liver MPS NASH model with TGFβ, Obeticholic acid and Elafibranor modulate disease phenotype to a greater extent than in standard NASH model. PHH, KC and HSC co-cultures were cultured in the MPS platform under high-fat conditions and dosed with varying concentrations of Obeticholic acid (OCA) and Elafibranor (ELF) QD or vehicle control for 10 days, following an initial 4-day pre-culture phase. Throughout the compound dosing period TGFβ was also dosed onto all microtissues (NASH only vehicle control samples were also included in the study for comparison, which were not treated with TGFβ or dosed with any compound). a The secreted cytokine profile from treated liver microtissues was compared to determine the effects of each compound on the inflammatory profile of the liver with samples analysed at day 8 and 14 of the culture. Data were normalised by Z-transformation to allow comparison of all analytes (white = undetected). b The expression of fibrosis-associated biomarkers was analysed on day 14 media samples and compared to NASH + TGFβ control samples. c Liver microtissues were stained for collagen-type I, α-SMA, nuclei (DAPI), phalloidin (green) and imaged by confocal microscopy. Representative images are shown and scale bars 200 µm. Staining of microtissues was quantified by measuring total fluorescence intensity throughout individual microtissues, each data point represents an average of all microtissues per MPS culture (min 8, max 20). All datapoints shown with error bars highlighting means ± SD, all data from a minimum of three independent cultures: all comparisons were made to NASH + TGFβ control samples.
# Cytokine profiles in cell culture medium samples were also analysed by Luminex array for determination of 38 analytes in total, consisting of cytokines, chemokines, and growth factors using the MILLIPLEX MAP Human Cytokine/Chemokine Magnetic Bead Panel - Premixed 38 Plex (Merck Millipore, USA).
# Liver microtissues were cultured for 4 days in HEP-FAT medium, before dosing with obeticholic acid or elafibranor. Both compounds were dissolved in DMSO, diluted in cell culture medium (final DMSO concentration ≤1%) and added to microtissues during a full medium change every two days and in addition on the intervening days compounds were spiked into the media to increase drug concentration back to desired concentrations. Cultures were maintained in the presence of the compound, for a total of 10 days in the presence or absence of TGFβ.
smiles,measurement,setting,value
CSc1ccc(C(=O)/C=C/c2cc(C)c(OC(C)(C)C(=O)O)c(C)c2)cc1 [Elafibranor],Cmax,[1],13 µM
same,"NASH resolution, post-hoc analysis of the GOLDEN-505 phase 2b trial",human NASH patients; 120 mg,significant effect on NASH resolution
same,NASH resolution and fibrosis improvement in phase 3 trial,human NASH patients; 16-month interim analysis,did not reach statistical significance
same,"IL-1RA production, fold change compared to control","[2]; 1.3 µM, Day 8",0.9952 fold change
same,"IL-4 production, fold change compared to control","[2]; 1.3 µM, Day 8",1.184 fold change
same,"IL-6 production, fold change compared to control","[2]; 1.3 µM, Day 8",1.1389 fold change
same,"IL-8 production, fold change compared to control","[2]; 1.3 µM, Day 8",1.023 fold change
same,"IP-10 production, fold change compared to control","[2]; 1.3 µM, Day 8",1.0718 fold change
same,"MCP-1 production, fold change compared to control","[2]; 1.3 µM, Day 8",1.264 fold change
same,"MIP-1a production, fold change compared to control","[2]; 1.3 µM, Day 8",0.709 fold change
same,"MIP-1b production, fold change compared to control","[2]; 1.3 µM, Day 8",0.6796 fold change
same,"VEGF production, fold change compared to control","[2]; 1.3 µM, Day 8",1.105 fold change
same,"IL-1RA production, fold change compared to control","[2]; 1.3 µM, Day 14",0.9067 fold change
same,"IL-4 production, fold change compared to control","[2]; 1.3 µM, Day 14",0.6872 fold change
same,"IL-6 production, fold change compared to control","[2]; 1.3 µM, Day 14",0.5754 fold change
same,"IL-8 production, fold change compared to control","[2]; 1.3 µM, Day 14",0.6606 fold change
same,"IP-10 production, fold change compared to control","[2]; 1.3 µM, Day 14",1.038 fold change
same,"MCP-1 production, fold change compared to control","[2]; 1.3 µM, Day 14",0.8586 fold change
same,"MIP-1a production, fold change compared to control","[2]; 1.3 µM, Day 14",0.6631 fold change
same,"VEGF production, fold change compared to control","[2]; 1.3 µM, Day 14",1.4873 fold change
same,"IL-1RA production, fold change compared to control","[2]; 13 µM, Day 8",1.265 fold change
same,"IL-4 production, fold change compared to control","[2]; 13 µM, Day 8",0.7184 fold change
same,"IL-6 production, fold change compared to control","[2]; 13 µM, Day 8",1.361 fold change
same,"IL-8 production, fold change compared to control","[2]; 13 µM, Day 8",0.9806 fold change
same,"IP-10 production, fold change compared to control","[2]; 13 µM, Day 8",0.6298 fold change
same,"MCP-1 production, fold change compared to control","[2]; 13 µM, Day 8",0.7964 fold change
same,"MIP-1a production, fold change compared to control","[2]; 13 µM, Day 8",0.7122 fold change
same,"MIP-1b production, fold change compared to control","[2]; 13 µM, Day 8",0.7615 fold change
same,"VEGF production, fold change compared to control","[2]; 13 µM, Day 8",1.5043 fold change
same,"IL-1RA production, fold change compared to control","[2]; 13 µM, Day 14",1.13 fold change
same,"IL-4 production, fold change compared to control","[2]; 13 µM, Day 14",0.4238 fold change
same,"IL-6 production, fold change compared to control","[2]; 13 µM, Day 14",0.6467 fold change
same,"IL-8 production, fold change compared to control","[2]; 13 µM, Day 14",0.4814 fold change
same,"IP-10 production, fold change compared to control","[2]; 13 µM, Day 14",0.5019 fold change
same,"MCP-1 production, fold change compared to control","[2]; 13 µM, Day 14",0.7625 fold change
same,"MIP-1a production, fold change compared to control","[2]; 13 µM, Day 14",0.5355 fold change
same,"VEGF production, fold change compared to control","[2]; 13 µM, Day 14",3.124 fold change
same,"IL-1RA production, fold change compared to control","[2]; 65 µM, Day 8",0.4291 fold change
same,"IL-4 production, fold change compared to control","[2]; 65 µM, Day 8",0.5702 fold change
same,"IL-6 production, fold change compared to control","[2]; 65 µM, Day 8",0.5734 fold change
same,"IL-8 production, fold change compared to control","[2]; 65 µM, Day 8",0.6965 fold change
same,"IP-10 production, fold change compared to control","[2]; 65 µM, Day 8",0.5276 fold change
same,"MCP-1 production, fold change compared to control","[2]; 65 µM, Day 8",0.2341 fold change
same,"MIP-1a production, fold change compared to control","[2]; 65 µM, Day 8",0.4239 fold change
same,"VEGF production, fold change compared to control","[2]; 65 µM, Day 8",1.511 fold change
same,"IL-1RA production, fold change compared to control","[2]; 65 µM, Day 14",0.4779 fold change
same,"IL-4 production, fold change compared to control","[2]; 65 µM, Day 14",0.2046 fold change
same,"IL-6 production, fold change compared to control","[2]; 65 µM, Day 14",0.3326 fold change
same,"IL-8 production, fold change compared to control","[2]; 65 µM, Day 14",0.254 fold change
same,"IP-10 production, fold change compared to control","[2]; 65 µM, Day 14",0.6289 fold change
same,"MCP-1 production, fold change compared to control","[2]; 65 µM, Day 14",0.1593 fold change
same,"VEGF production, fold change compared to control","[2]; 65 µM, Day 14",2.734 fold change
same,cytokine on which the drug had the greatest effect,"[2]; NASH microtissues, high NPC, + TGFβ",MCP-1
